Measured values taken from PubChem BioAssay (NCI).
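Protocol summary: plate cells (96-well), add compound at 5 concentrations, incubate 48 h, interpolate endpoints linearly. GI50: concentration for 50% inhibition of growth. At the TGI there is no net growth.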

Key:
Assay in all cases: inhibition of tumour cell growth, NCI panel, 48 h
RXF 393 renal = system: RXF 393 renal
SW-620 colon = system: SW-620 colon
HOP-62 NSCLC = system: HOP-62 NSCLC
M14 melanoma = system: M14 melanoma
SK-OV-3 ovarian = system: SK-OV-3 ovarian
SR leukemia = system: SR leukemia
LOX IMVI melanoma = system: LOX IMVI melanoma
MCF7 breast = system: MCF7 breast
OVCAR-4 ovarian = system: OVCAR-4 ovarian
EKVX NSCLC = system: EKVX NSCLC
A549 NSCLC = system: A549 NSCLC
NCI-H460 lung = system: NCI-H460 lung
OVCAR-5 ovarian = system: OVCAR-5 ovarian
SK-MEL-2 melanoma = system: SK-MEL-2 melanoma
HT29 colon = system: HT29 colon
T-47D breast = system: T-47D breast
NCI-H522 lung = system: NCI-H522 lung
NCI/ADR-RES ovarian = system: NCI/ADR-RES ovarian
UACC-257 melanoma = system: UACC-257 melanoma
UO-31 renal = system: UO-31 renal
CCRF-CEM leukemia = system: CCRF-CEM leukemia
SNB-75 CNS = system: SNB-75 CNS
SK-MEL-28 melanoma = system: SK-MEL-28 melanoma
IGROV1 ovarian = system: IGROV1 ovarian
BT-549 breast = system: BT-549 breast
SK-MEL-5 melanoma = system: SK-MEL-5 melanoma
U251 CNS = system: U251 CNS
ACHN renal = system: ACHN renal
SF-295 CNS = system: SF-295 CNS
786-0 renal = system: 786-0 renal
NCI-H226 lung = system: NCI-H226 lung
DU-145 prostate = system: DU-145 prostate
SF-539 CNS = system: SF-539 CNS
RPMI-8226 leukemia = system: RPMI-8226 leukemia
NCI-H23 lung = system: NCI-H23 lung
K-562 leukemia = system: K-562 leukemia
TK-10 renal = system: TK-10 renal
A498 renal = system: A498 renal
HCT-116 colon = system: HCT-116 colon
HL-60(TB) leukemia = system: HL-60(TB) leukemia
MDA-MB-231 breast = system: MDA-MB-231 breast
CAKI-1 renal = system: CAKI-1 renal
SNB-19 CNS = system: SNB-19 CNS
MOLT-4 leukemia = system: MOLT-4 leukemia
SF-268 CNS = system: SF-268 CNS
SN12C renal = system: SN12C renal
HS 578T breast = system: HS 578T breast
HCT-15 colon = system: HCT-15 colon
HOP-92 NSCLC = system: HOP-92 NSCLC
MALME-3M melanoma = system: MALME-3M melanoma
OVCAR-8 ovarian = system: OVCAR-8 ovarian
COLO 205 colon = system: COLO 205 colon
MDA-MB-435 = system: MDA-MB-435
UACC-62 melanoma = system: UACC-62 melanoma
PC-3 prostate = system: PC-3 prostate
KM12 colon = system: KM12 colon
HCC-2998 colon = system: HCC-2998 colon

CCN(CC)CCCC(C)NCC(=O)NC(c1ccc2c(c1)OCO2)c1cc(Cl)c2cccnc2c1O (centres undefined)
GI50 (RXF 393 renal): 2.33 µM
TGI (RXF 393 renal): 10.3 µM
GI50 (SW-620 colon): 2.32 µM
TGI (SW-620 colon): 11.9 µM
GI50 (HOP-62 NSCLC): 1.56 µM
TGI (HOP-62 NSCLC): 6.88 µM
GI50 (M14 melanoma): 1.42 µM
TGI (M14 melanoma): 3.27 µM
GI50 (SK-OV-3 ovarian): 2.93 µM
TGI (SK-OV-3 ovarian): 8.45 µM
GI50 (SR leukemia): 0.897 µM
TGI (SR leukemia): 5.61 µM
GI50 (LOX IMVI melanoma): 1.22 µM
TGI (LOX IMVI melanoma): 3.13 µM
GI50 (MCF7 breast): 1.59 µM
TGI (MCF7 breast): 10.6 µM
GI50 (OVCAR-4 ovarian): 1.39 µM
TGI (OVCAR-4 ovarian): 14.7 µM
GI50 (EKVX NSCLC): 1.65 µM
TGI (EKVX NSCLC): 11 µM
GI50 (A549 NSCLC): 2.83 µM
TGI (A549 NSCLC): 13.4 µM
GI50 (NCI-H460 lung): 1.48 µM
TGI (NCI-H460 lung): 6.45 µM
GI50 (OVCAR-5 ovarian): 2.73 µM
TGI (OVCAR-5 ovarian): 15.5 µM
GI50 (SK-MEL-2 melanoma): 2.37 µM
TGI (SK-MEL-2 melanoma): 6.33 µM
GI50 (HT29 colon): 2.41 µM
TGI (HT29 colon): 10.4 µM
GI50 (T-47D breast): 2.89 µM
TGI (T-47D breast): 9.19 µM
GI50 (NCI-H522 lung): 2.36 µM
TGI (NCI-H522 lung): 6.97 µM
GI50 (NCI/ADR-RES ovarian): 3.31 µM
TGI (NCI/ADR-RES ovarian): 15.5 µM
GI50 (UACC-257 melanoma): 1.92 µM
TGI (UACC-257 melanoma): 4.18 µM
GI50 (UO-31 renal): 2.02 µM
TGI (UO-31 renal): 7.16 µM
GI50 (CCRF-CEM leukemia): 0.909 µM
TGI (CCRF-CEM leukemia): 12.2 µM
GI50 (SNB-75 CNS): 2.18 µM
TGI (SNB-75 CNS): 8.73 µM
GI50 (SK-MEL-28 melanoma): 1.47 µM
TGI (SK-MEL-28 melanoma): 3.08 µM
GI50 (IGROV1 ovarian): 2.53 µM
TGI (IGROV1 ovarian): 10.8 µM
GI50 (BT-549 breast): 4.78 µM
TGI (BT-549 breast): 17.1 µM
GI50 (SK-MEL-5 melanoma): 1.67 µM
TGI (SK-MEL-5 melanoma): 3.11 µM
GI50 (U251 CNS): 2.1 µM
TGI (U251 CNS): 13 µM
GI50 (ACHN renal): 2.79 µM
TGI (ACHN renal): 10.1 µM
GI50 (SF-295 CNS): 1.56 µM
TGI (SF-295 CNS): 3.41 µM
GI50 (786-0 renal): 2.3 µM
TGI (786-0 renal): 5.75 µM
GI50 (NCI-H226 lung): 2.12 µM
TGI (NCI-H226 lung): 6.71 µM
GI50 (DU-145 prostate): 2.63 µM
TGI (DU-145 prostate): 15.7 µM
GI50 (SF-539 CNS): 1.85 µM
TGI (SF-539 CNS): 4.05 µM
GI50 (RPMI-8226 leukemia): 2.36 µM
TGI (RPMI-8226 leukemia): 7.77 µM
GI50 (NCI-H23 lung): 2.99 µM
TGI (NCI-H23 lung): 11.2 µM
GI50 (K-562 leukemia): 0.895 µM
TGI (K-562 leukemia): 9.33 µM
GI50 (TK-10 renal): 3.36 µM
TGI (TK-10 renal): 15.1 µM
GI50 (A498 renal): 2.35 µM
TGI (A498 renal): 6.69 µM
GI50 (HCT-116 colon): 1.41 µM
TGI (HCT-116 colon): 11.2 µM
GI50 (HL-60(TB) leukemia): 1.29 µM
TGI (HL-60(TB) leukemia): 4.41 µM
GI50 (MDA-MB-231 breast): 1.35 µM
TGI (MDA-MB-231 breast): 11.9 µM
GI50 (CAKI-1 renal): 1.77 µM
TGI (CAKI-1 renal): 4.41 µM
GI50 (SNB-19 CNS): 3.23 µM
TGI (SNB-19 CNS): 15.2 µM
GI50 (MOLT-4 leukemia): 0.626 µM
TGI (MOLT-4 leukemia): 11.2 µM
GI50 (SF-268 CNS): 2.21 µM
TGI (SF-268 CNS): 10.6 µM
GI50 (SN12C renal): 3.15 µM
TGI (SN12C renal): 13.7 µM
GI50 (HS 578T breast): 4.37 µM
TGI (HS 578T breast): 22.6 µM
GI50 (HCT-15 colon): 2.44 µM
TGI (HCT-15 colon): 11.9 µM
GI50 (HOP-92 NSCLC): 1.62 µM
TGI (HOP-92 NSCLC): 8.17 µM
GI50 (MALME-3M melanoma): 1.68 µM
TGI (MALME-3M melanoma): 3.29 µM
GI50 (OVCAR-8 ovarian): 2.56 µM
TGI (OVCAR-8 ovarian): 13.1 µM
GI50 (COLO 205 colon): 2.36 µM
TGI (COLO 205 colon): 8.42 µM
GI50 (MDA-MB-435): 1.81 µM
TGI (MDA-MB-435): 3.87 µM
GI50 (UACC-62 melanoma): 1.83 µM
TGI (UACC-62 melanoma): 3.6 µM
GI50 (PC-3 prostate): 2.03 µM
TGI (PC-3 prostate): 12 µM
GI50 (KM12 colon): 2.41 µM
TGI (KM12 colon): 9.78 µM
GI50 (HCC-2998 colon): 1.73 µM
TGI (HCC-2998 colon): 4.13 µM
